From patent US11109593B2, “Isoxazolin-5-one derivative and herbicide containing same as active ingredient” (HOKKO CHEMICAL INDUSTRY CO., LTD., priority 2017, dated 2021)

How the values were obtained:
Assay type in all cases: in vivo
Echinochloa crus-galli [1] = experiment: Test Example 1: herbicidal effect test by treatment of rice paddy soil (immediately after seeding); details: 120 g/10a active ingredient, dry weight vs untreated area, 14 days after treatment
Outline: (§1)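 Applied at 120 g a.i./10 ares as diluted emulsion dropped into flooded (~3 cm) paddy soil pots right after sowing seeds 0–1 cm deep; greenhouse, two replicates. At day 14, dry weight of treated versus untreated plants gives % herbicidal rate.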

Scirpus juncoides [2] = experiment: as above; details: 120 g/10a active ingredient, dry weight vs untreated area, 14 days after treatment
Outline: as §1

[3] = tested on: broad leaf weeds (Lindernia pyxidaria and Monochoria vaginalis); experiment: as above; details: 120 g/10a active ingredient, dry weight vs untreated area, 14 days after treatment
Outline: as §1

Echinochloa crus-galli [4] = experiment: Test Example 2: herbicidal effect test by treatment during growing period in paddy rice cultivation (seven days after seeding); details: 120 g/10a active ingredient, assessed 14 days after treatment, dry weight vs untreated area
Outline: (§2)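 Emulsion formulations, diluted in water, applied dropwise to flooded pots (about 3 cm water) 7 days post-seeding at 120 g a.i./10 ares. Weeds sown 30 seeds each, 0–1 cm deep in puddled paddy soil; greenhouse. Readout: % reduction in plant dry weight vs untreated, day 14, duplicates.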

Scirpus juncoides [5] = experiment: as above; details: 120 g/10a active ingredient, assessed 14 days after treatment, dry weight vs untreated area
Outline: as §2

[6] = tested on: broad leaf weeds (Lindernia pyxidaria and Monochoria vaginalis); experiment: as above; details: 120 g/10a active ingredient, assessed 14 days after treatment, dry weight vs untreated area
Outline: as §2

Amaranthus viridis [7] = experiment: Test Example 3: herbicidal effect test by treatment of dry field farming soil (one day after seeding); details: 120 g/10a active ingredient, evaluated 14 days after treatment
Outline: (§3)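 Herbicidal rate (%) = {1 − treated/untreated mean plant dry weight} × 100, scored 14 days after spraying, duplicate pots per concentration. Emulsified compound was water-diluted and applied to soil surface one day post-seeding at 120 g a.i. per 10 ares.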

Chenopodium album [8] = experiment: as above; details: 120 g/10a active ingredient, evaluated 14 days after treatment
Outline: as §3

Echinochloa crus-galli [9] = experiment: as above; details: 120 g/10a active ingredient, evaluated 14 days after treatment
Outline: as §3

southern crabgrass [10] = experiment: as above; details: 120 g/10a active ingredient, evaluated 14 days after treatment
Outline: as §3

Amaranthus viridis [11] = experiment: Test Example 4: herbicidal effect test by treatment of leave and stem in dry field farming (seven days after seeding); details: 120 g/10a active ingredient; emulsion sprayed seven days after seeding; evaluated 14 days after treatment
Outline: (§4)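 Weeds were seeded at 20 seeds per species into the top 1 cm of alluvial upland soil in pots, then sprayed 7 days after seeding with water-diluted emulsifiable concentrate at 100 L/10 a, giving 120 g active ingredient/10 a. Duplicate pots; herbicidal rate (%) was 14 days post-treatment, from dry weight versus untreated.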

Chenopodium album [12] = experiment: as above; details: 120 g/10a active ingredient; emulsion sprayed seven days after seeding; evaluated 14 days after treatment
Outline: as §4

Echinochloa crus-galli [13] = experiment: as above; details: 120 g/10a active ingredient; emulsion sprayed seven days after seeding; evaluated 14 days after treatment
Outline: as §4

southern crabgrass [14] = experiment: as above; details: 120 g/10a active ingredient; emulsion sprayed seven days after seeding; evaluated 14 days after treatment
Outline: as §4

Compound	Herbicidal rate (%) Echinochloa crus-galli (Echinochloa crus-galli [1]) [%]	Herbicidal rate (%) Scirpus juncoides (Scirpus juncoides [2]) [%]	Herbicidal rate (%) Lindernia pyxidaria [3] [%]	Herbicidal rate (%) Monochoria vaginalis [3] [%]	Herbicidal rate (%) Echinochloa crus-galli (Echinochloa crus-galli [4]) [%]	Herbicidal rate (%) Scirpus juncoides (Scirpus juncoides [5]) [%]	Herbicidal rate (%) Lindernia pyxidaria [6] [%]	Herbicidal rate (%) Monochoria vaginalis [6] [%]	herbicidal rate, Amaranthus viridis (Amaranthus viridis [7]) [%]	herbicidal rate, Chenopodium album (Chenopodium album [8]) [%]	herbicidal rate, Echinochloa crus-galli (Echinochloa crus-galli [9]) [%]	herbicidal rate, southern crabgrass (southern crabgrass [10]) [%]	herbicidal effect (herbicidal rate), Amaranthus viridis (Amaranthus viridis [11]) [%]	herbicidal effect (herbicidal rate), Chenopodium album (Chenopodium album [12]) [%]	herbicidal effect (herbicidal rate), Echinochloa crus-galli (Echinochloa crus-galli [13]) [%]	herbicidal effect (herbicidal rate), southern crabgrass (southern crabgrass [14]) [%]
Cc1c(Cc2ccccc2NS(=O)(=O)C(F)(F)F)c(=O)on1Cc1ccccc1 [Compound 1-180]	90	90	90	90	70	90	80	90	30	30	80	80	0	40	50	50
Cc1c(Cc2ccccc2N(C(=O)C(C)C)S(=O)(=O)C(F)(F)F)c(=O)on1C(C)(C)C [Compound 1-329]	90	90	90	90	90	90	90	90	90	90	90	90	40	40	90	90
Cc1c(Cc2ccccc2NS(=O)(=O)C(F)(F)F)c(=O)on1CC1(C)CC1 [Compound 1-145]	100	100	100	100	90	80	60	80	40	40	90	80	0	40	90	50
Cc1c(Cc2ccccc2NS(=O)(=O)C(F)(F)F)c(=O)on1CCC(C)(C)C [Compound 1-116]	90	90	90	80	90	90	60	80	80	50	90	90	60	50	80	40
CCC(CC)n1oc(=O)c(Cc2ccccc2N(C(=O)C2CC2)S(=O)(=O)C(F)(F)F)c1C [Compound 1-405]	90	90	90	90	90	90	90	90	90	90	90	90	40	40	90	90
CCC(C)n1oc(=O)c(Cc2ccccc2N(C(=O)C(C)C)S(=O)(=O)C(F)(F)F)c1C (stereo not shown) [Compound 1-330]	90	90	90	90	90	90	90	90	90	90	90	90	40	40	90	90
CCCC(C)n1oc(=O)c(Cc2ccccc2N(C(=O)CC(C)C)S(=O)(=O)C(F)(F)F)c1C (stereo not shown) [Compound 1-356]	100	90	90	60	100	90	60	70	90	60	90	90	60	60	90	80
COCC(C)n1oc(=O)c(Cc2ccccc2N(C(=O)OCC(C)C)S(=O)(=O)C(F)(F)F)c1C (stereo not shown) [Compound 1-675]	90	90	90	90	90	90	90	90	90	90	90	90	40	40	90	90
C=CCn1oc(=O)c(Cc2ccccc2N(S(=O)(=O)C(F)(F)F)S(=O)(=O)C(F)(F)F)c1C [Compound 1-985]	90	90	100	70	90	60	60	60	80	80	70	70	60	60	90	60
CCC(C)n1oc(=O)c(Cc2ccccc2N(C(=O)c2ccc(C)cc2)S(=O)(=O)C(F)(F)F)c1C (stereo not shown) [Compound 1-494]	90	90	90	90	90	90	90	90	90	90	90	90	40	40	90	90
